Here are results for ten molecules from PubChem BioAssay (NCI).

SMILES strings stand for the structures.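 Values below derive from 48-hour exposures of cells grown in 96-well plates, with endpoints linearly interpolated between the two concentrations bracketing the appropriate inhibition level. At the TGI there is no net growth.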

Some test systems named below: A498 renal; OVCAR-5 ovarian; MCF7 breast; SNB-75 CNS; SN12C renal; NCI-H23 lung; UACC-257 melanoma; MDA-MB-231 breast; NCI-H226 lung; BT-549 breast; A549 NSCLC; ACHN renal; KM12 colon; NCI/ADR-RES ovarian; HS 578T breast; HL-60(TB) leukemia.
Common to all, as to assay: NCI-60 cell line screen, 48 h

Take `N#CCC(=O)c1cc(OCc2cc(OCc3ccc(Br)cc3)cc(OCc3ccc(Br)cc3)c2)cc(OCc2cc(OCc3ccc(Br)cc3)cc(OCc3ccc(Br)cc3)c2)c1`: the TGI with A498 renal, in the experiment with OVCAR-5 ovarian, in the experiment on MCF7 breast, in the experiment on SNB-75 CNS, with SN12C renal and with NCI-H23 lung was above 100 µM in each case. Besides, the TGI in the experiment on UACC-257 melanoma, with MDA-MB-231 breast, in the experiment with NCI-H226 lung, with BT-549 breast, in the experiment on A549 NSCLC and in the experiment on ACHN renal was above 100 µM each time. Also, the TGI with KM12 colon and in the experiment with NCI/ADR-RES ovarian was above 100 µM each time.

Consider `COC(=O)C12OC(C)(C(CC(=O)OC(C)(C)C)C1=O)C1C(=O)N(c3ccccc3)C(=O)C12` (stereo not drawn), for which the TGI in the experiment with A498 renal, with OVCAR-5 ovarian, in the experiment with SNB-75 CNS, with SN12C renal, in the experiment on NCI-H23 lung and in the experiment with UACC-257 melanoma was above 100 µM each time. For the same molecule, the TGI with MDA-MB-231 breast, in the experiment with NCI-H226 lung, in the experiment with BT-549 breast, in the experiment on HS 578T breast, with A549 NSCLC and in the experiment on ACHN renal was above 100 µM in each case. Further, the TGI with KM12 colon and in the experiment with NCI/ADR-RES ovarian was above 100 µM in each case.

`O=C1CCCCC1=C(I)I`: the TGI in the experiment with A498 renal is 35.5 µM; in the experiment on OVCAR-5 ovarian, 31.6 µM; in the experiment with SNB-75 CNS, 47.1 µM; in the experiment on SN12C renal it was 55.6 µM; in the experiment on HL-60(TB) leukemia, 26.2 µM; in the experiment with NCI-H226 lung it was 42.7 µM. Further, the TGI in the experiment on BT-549 breast is 26.8 µM; in the experiment with HS 578T breast, above 100 µM; in the experiment with A549 NSCLC it was above 100 µM; in the experiment with ACHN renal it was 31.7 µM; in the experiment on KM12 colon it was 28.8 µM.

For the molecule `CC(=O)CCC(=O)C(=[N+]=[N-])S(=O)(=O)c1ccccc1`, the TGI in the experiment on OVCAR-5 ovarian, in the experiment with MCF7 breast, with SNB-75 CNS, with SN12C renal, with NCI-H23 lung and in the experiment on UACC-257 melanoma was above 100 µM each time. The TGI with HL-60(TB) leukemia, in the experiment on MDA-MB-231 breast, in the experiment with BT-549 breast, in the experiment with HS 578T breast, in the experiment with A549 NSCLC and in the experiment with ACHN renal was above 100 µM throughout. The TGI in the experiment on KM12 colon and with NCI/ADR-RES ovarian was above 100 µM each time.

In the case of `CCOP(=O)(OCC)/C(C#N)=C/c1ccc(-c2ccc(F)cc2F)o1`, the TGI in the experiment with A498 renal is 28.8 µM; in the experiment with OVCAR-5 ovarian, 31.7 µM; in the experiment on MCF7 breast, 43 µM; in the experiment on SNB-75 CNS, 61.3 µM; with SN12C renal, 29.7 µM; in the experiment with NCI-H23 lung it was 33.6 µM. Further, the TGI worked out at 26.8 µM in the experiment with UACC-257 melanoma; 34.9 µM with HL-60(TB) leukemia; 36.6 µM with MDA-MB-231 breast; 36 µM in the experiment with NCI-H226 lung; 24.5 µM with BT-549 breast; 30.2 µM with A549 NSCLC. Besides, the TGI in the experiment with ACHN renal stood at 26.6 µM; in the experiment with KM12 colon, 31.6 µM; in the experiment on NCI/ADR-RES ovarian, 58.9 µM.

As to `COc1cc(/C=C/C(=O)OC2C(O)C3CC(OC(=O)c4cc(OC)c(OC)c(OC)c4)CC2N3C)cc(OC)c1OC` (stereo not drawn), the TGI is 17.7 µM in the experiment with A498 renal; above 50 µM in the experiment on OVCAR-5 ovarian; above 50 µM in the experiment on MCF7 breast; above 50 µM with SNB-75 CNS; above 50 µM in the experiment with SN12C renal; above 50 µM in the experiment on NCI-H23 lung. Moreover, the TGI with UACC-257 melanoma, with MDA-MB-231 breast, in the experiment on NCI-H226 lung, in the experiment with BT-549 breast, in the experiment with A549 NSCLC and in the experiment on ACHN renal was above 50 µM throughout. Besides, the TGI in the experiment with KM12 colon and in the experiment with NCI/ADR-RES ovarian was above 50 µM in each case.

With `CN1CCN(c2cc3c(cc2F)c(=O)c(C(=O)O)cn3C2CC2)CC1CC#N` (stereo not drawn), the TGI with A498 renal, in the experiment on OVCAR-5 ovarian, in the experiment on MCF7 breast, with SNB-75 CNS, in the experiment on SN12C renal and in the experiment with NCI-H23 lung was above 100 µM in each case. Besides, the TGI in the experiment on UACC-257 melanoma, in the experiment on HL-60(TB) leukemia, in the experiment on MDA-MB-231 breast, in the experiment on NCI-H226 lung, in the experiment with BT-549 breast and in the experiment on A549 NSCLC was above 100 µM each time. For the same molecule, the TGI in the experiment on ACHN renal, in the experiment with KM12 colon and in the experiment on NCI/ADR-RES ovarian was above 100 µM each time.

With `Cc1cc(C)nc(NC(=S)Nc2ccccc2Cl)c1`, the TGI in the experiment on A498 renal, in the experiment on OVCAR-5 ovarian, in the experiment with MCF7 breast, with SNB-75 CNS, with SN12C renal and in the experiment with UACC-257 melanoma was above 100 µM each time. The TGI in the experiment on HL-60(TB) leukemia, in the experiment with NCI-H226 lung, in the experiment with BT-549 breast, in the experiment on HS 578T breast, with A549 NSCLC and in the experiment with KM12 colon was above 100 µM in each case. Also, the TGI with NCI/ADR-RES ovarian was above 100 µM.

As to `CC(C)(C)[Si](C)(C)OCC1OC(n2ccc(=O)[nH]c2=O)C(O[Si](C)(C)C(C)(C)C)[C@@]12O[C@H]2C(N)=O` (stereo partly drawn), the TGI is 40.6 µM with OVCAR-5 ovarian; 18.7 µM in the experiment on MCF7 breast; 24.7 µM with SNB-75 CNS; 30.3 µM with SN12C renal; 28.7 µM with NCI-H23 lung; above 100 µM in the experiment on UACC-257 melanoma. For the same molecule, the TGI is above 100 µM in the experiment on HL-60(TB) leukemia; 21.7 µM in the experiment on MDA-MB-231 breast; 11.4 µM in the experiment on NCI-H226 lung; 40.2 µM in the experiment on BT-549 breast; 25.9 µM in the experiment on A549 NSCLC; 16.5 µM in the experiment on ACHN renal. In addition, the TGI worked out at 44.2 µM in the experiment with KM12 colon and 38.5 µM in the experiment with NCI/ADR-RES ovarian.

For `CCN1CN(c2ccccc2)C2(CCN(CCCSc3ccc(F)cc3)CC2)C1=O`, the TGI was determined as 20.5 µM in the experiment on OVCAR-5 ovarian; 12.2 µM with MCF7 breast; 30.1 µM in the experiment with SNB-75 CNS; 20.5 µM with SN12C renal; 24.1 µM in the experiment with NCI-H23 lung; 17.1 µM in the experiment with UACC-257 melanoma. Further, the TGI in the experiment with HL-60(TB) leukemia was found to be 26.6 µM; in the experiment on MDA-MB-231 breast it was 29 µM; in the experiment on NCI-H226 lung, 33.7 µM; in the experiment on BT-549 breast, 21.4 µM; in the experiment on A549 NSCLC, 21.2 µM; in the experiment on ACHN renal, 24.1 µM. The values for the TGI with KM12 colon and with NCI/ADR-RES ovarian were 28.9 µM and 28.2 µM, respectively.
